Measurements published in patent US20260325561A1, “4'-SUBSTITUTED NUCLEOSIDES AND NUCLEOTIDES AS ANTIVIRAL AGENTS” (THE SCRIPPS RESEARCH INSTITUTE, priority 2023, published 2026).

Tests used:
in vitro [1] = conditions: human, h1 hela cells
HRV 14 = assay: microbe, parasite or virus in culture; assay type: cell-based, Human Rhinovirus 14 strain 1059; conditions: Rhinovirus B, H1-HeLa, 48 h, read-out: HRV / H1 HeLa B 14 EC50
DENV-2 = assay: microbe, parasite or virus in culture; assay type: cell-based, DENV-2 16681; conditions: Dengue virus, DENV2, HepG2, 24 h, read-out: DENV-2 / HepG2 EC50
in vitro [2] = conditions: human, hepg2 cells
SARS-CoV-2 = assay: microbe, parasite or virus in culture; assay type: cell-based, SARS-CoV-2 strain USA-WA1/2020; conditions: Severe acute respiratory syndrome coronavirus 2, HeLa-ACE2, 24 h, read-out: SARS-CoV-2 / HeLa-ACE2 EC50
in vitro [3] = conditions: human, hep2 cells
in vitro [4] = conditions: human, hela-ace2 cells
RSV A2 = assay: microbe, parasite or virus in culture; assay type: cell-based; conditions: human respiratory syncytial virus, HEp-2, 72 h, read-out: RSV A2 / Hep2 EC50

Compound | CC50 (in vitro [1]) [µM] | EC50 (HRV 14) [µM] | EC50 (DENV-2) [µM] | CC50 at 72 h (in vitro [2]) [µM] | EC50 (SARS-CoV-2) [µM] | CC50 (in vitro [3]) [µM] | CC50 at 24 h (in vitro [4]) [µM] | EC50 (RSV A2) [µM]
CNc1nc(N)nc2c1ncn2[C@@H]1O[C@](F)(COP(=O)(N[C@@H](C)C(=O)OC(C)C)Oc2ccccc2)[C@@H](O)[C@]1(F)Cl (single isomer, unassigned) [Example 58] | > 99 | 0.1 to 1 | 0.1 to 1 | > 99 | > 10 | > 99 | > 99 | > 10
CNc1nc(N)nc2c1ncn2[C@@H]1O[C@](F)(COP(=O)(N[C@@H](C)C(=O)OC(C)C)Oc2ccccc2)[C@@H](O)[C@]1(F)Cl (single isomer, unassigned) [Example 59] | > 99 | 1 to 10 | 1 to 10 | > 99 | > 10 | > 99 | > 99 | > 10
CO[C@]1(CO)O[C@@H](c2ccc3c(N)ncnn23)[C@](C)(O)[C@@H]1O [Example 3, (2R,3S,4R,5S)-5-(4-aminopyrrolo[2,1-f][1,2,4]triazin-7-yl)-2-(hydroxymethyl)-2-methoxy-4-methyltetrahydrofuran-3,4-diol] | > 99 | > 10 | > 10 | > 99 | > 10 | > 99 | > 99 | > 10
[N-]=[N+]=N[C@]1(CO)C[C@@H](O)[C@H](n2ccc3c(N)ncnc32)O1 [Example 8, (2R,3R,5R)-2-(4-amino-7H-pyrrolo[2,3-d]pyrimidin-7-yl)-5-azido-5-(hydroxymethyl)tetrahydrofuran-3-ol] | > 99 | > 10 | > 10 | > 99 | > 10 | > 99 | > 99 | > 10
C[C@]1(O)[C@H](c2ccc3c(N)ncnn23)O[C@@](CO)(N=[N+]=[N-])[C@H]1O [Example 9, (2R,3S,4R,5S)-5-(4-aminopyrrolo[2,1-f][1,2,4]triazin-7-yl)-2-azido-2-(hydroxymethyl)-4-methyltetrahydrofuran-3,4-diol] | > 99 | > 10 | > 10 | > 99 | > 10 | > 99 | > 99 | > 10
Nc1ncnc2c1ccn2[C@@H]1O[C@](F)(CO)C[C@H]1O [Example 11, (2R,3R,5R)-2-(4-amino-7H-pyrrolo[2,3-d]pyrimidin-7-yl)-5-fluoro-5-(hydroxymethyl)tetrahydrofuran-3-ol] | 10 to 99 | > 10 | > 10 | 10 to 99 | > 10 | > 99 | > 99 | > 10
Nc1ncnc2c1ccn2[C@@H]1O[C@@](F)(CO)C[C@H]1O [Example 12, (2R,3R,5S)-2-(4-amino-7H-pyrrolo[2,3-d]pyrimidin-7-yl)-5-fluoro-5-(hydroxymethyl)tetrahydrofuran-3-ol] | 10 to 99 | > 10 | > 10 | > 99 | > 10 | > 99 | > 99 | > 10
CSc1nc(N)nc2c1ncn2[C@@H]1O[C@](F)(CO)[C@@H](O)[C@H]1O [Example 28] | 1 to 10 | > 10 | 0.1 to 1 | 1 to 10 | > 10 | 1 to 10 | 1 to 10 | 0.1 to 1
N#Cc1cn([C@@H]2O[C@](F)(CO)[C@@H](O)[C@H]2O)c2nc[nH]c(=O)c12 [Example 37, 7-((2R,3R,4S,5S)-5-fluoro-3,4-dihydroxy-5-(hydroxymethyl)tetrahydrofuran-2-yl)-4-oxo-4,7-dihydro-3H-pyrrolo[2,3-d]pyrimidine-5-carbonitrile] | > 99 | > 10 | > 10 | > 99 | > 10 | > 99 | > 99 | > 10
COc1ncnc2c1c(C(N)=O)cn2[C@@H]1O[C@](F)(CO)[C@@H](O)[C@H]1O [Example 38, 7-((2R,3R,4S,5S)-5-fluoro-3,4-dihydroxy-5-(hydroxymethyl)tetrahydrofuran-2-yl)-4-methoxy-7H-pyrrolo[2,3-d]pyrimidine-5-carboxamide] | 10 to 99 | > 10 | 1 to 10 | 1 to 10 | > 10 | 10 to 99 | < 1 | > 10
COc1ncnc2c1ccn2[C@@H]1O[C@](F)(CO)C[C@H]1O [Example 39, (2R,3R,5R)-5-fluoro-5-(hydroxymethyl)-2-(4-methoxy-7H-pyrrolo[2,3-d]pyrimidin-7-yl)tetrahydrofuran-3-ol] | > 99 | > 10 | > 10 | > 99 | > 10 | > 99 | > 99 | > 10
Nc1ncnc2c1c(C(F)(F)F)cn2[C@@H]1O[C@](F)(CO)[C@@H](O)[C@H]1O [Example 42, (2S,3S,4R,5R)-5-(4-amino-5-(trifluoromethyl)-7H-pyrrolo[2,3-d]pyrimidin-7-yl)-2-fluoro-2-(hydroxymethyl)tetrahydrofuran-3,4-diol] |  |  | < 0.1 | < 1 |  |  |  | 
CC(C)C(=O)OC[C@@]1(F)O[C@@H](n2ccc3c(N)ncnc32)[C@H](O)[C@@H]1O [Example 46, ((2S,3S,4R,5R)-5-(4-amino-7H-pyrrolo[2,3-d]pyrimidin-7-yl)-2-fluoro-3,4-dihydroxytetrahydrofuran-2-yl)methyl isobutyrate] | 10 to 99 | 0.1 to 1 | < 0.1 | 1 to 10 | 0.1 to 1 | 10 to 99 | 1 to 10 | 0.1 to 1
CC(C)C(=O)OC[C@@]1(F)O[C@@H](n2ccc3c(N)ncnc32)[C@H](OC(=O)C(C)C)[C@@H]1OC(=O)C(C)C [Example 47, (2S,3S,4R,5R)-5-(4-amino-7H-pyrrolo[2,3-d]pyrimidin-7-yl)-2-fluoro-2-((isobutyryloxy)methyl)tetrahydrofuran-3,4-diyl bis(2-methylpropanoate)] | 10 to 99 | 1 to 10 | < 0.1 | 1 to 10 | 1 to 10 | 1 to 10 | 10 to 99 | < 0.1
N#C[C@@]1(c2cnc3c(N)ncnn23)O[C@](F)(CO)[C@@H](O)[C@H]1O [Example 51, (2R,3R,4S,5S)-2-(4-aminoimidazo[2,1-f][1,2,4]triazin-7-yl)-5-fluoro-3,4-dihydroxy-5-(hydroxymethyl)tetrahydrofuran-2-carbonitrile] | > 99 | > 10 | > 10 | > 99 | > 10 | > 99 | > 99 | > 10
Nc1ncnc2c1cnn2[C@@H]1O[C@](F)(CO)[C@@H](O)[C@H]1O [Example 52, (2S,3S,4R,5R)-5-(4-amino-1H-pyrazolo[3,4-d]pyrimidin-1-yl)-2-fluoro-2-(hydroxymethyl)tetrahydrofuran-3,4-diol] | 1 to 10 | 1 to 10 | 1 to 10 | < 1 | 1 to 10 | 1 to 10 | 1 to 10 | > 10
Cc1ncnc2c1ccn2[C@@H]1O[C@](F)(CO)[C@@H](O)[C@H]1O [Example 53, (2S,3S,4R,5R)-2-fluoro-2-(hydroxymethyl)-5-(4-methyl-7H-pyrrolo[2,3-d]pyrimidin-7-yl)tetrahydrofuran-3,4-diol] | > 99 | > 10 | 1 to 10 | 10 to 99 |  | > 99 |  | > 10
OC[C@@]1(F)O[C@@H](n2ccc3c(C4CC4)ncnc32)[C@H](O)[C@@H]1O [Example 54, (2S,3S,4R,5R)-5-(4-cyclopropyl-7H-pyrrolo[2,3-d]pyrimidin-7-yl)-2-fluoro-2-(hydroxymethyl)tetrahydrofuran-3,4-diol] | > 99 | > 10 | > 10 | > 99 |  | > 99 |  | > 10
Nc1ncnc2c1c(-c1nc3ccccc3s1)cn2[C@@H]1O[C@](F)(CO)[C@@H](O)C1(F)F [Example 55, (2S,3R,5R)-5-(4-amino-5-(benzo[d]thiazol-2-yl)-7H-pyrrolo[2,3-d]pyrimidin-7-yl)-2,4,4-trifluoro-2-(hydroxymethyl)tetrahydrofuran-3-ol] |  |  |  |  | < 0.1 |  | 1 to 10 | 
CC(C)OC(=O)[C@H](C)NP(=O)(OC[C@@]1(F)O[C@@H](n2cnc3c(=O)[nH]c(N)nc32)C(F)(F)[C@@H]1O)Oc1ccccc1 (stereo partly drawn) [Example 61, isopropyl ((((2S,3R,5R)-5-(2-amino-6-oxo-1,6-dihydro-9H-purin-9-yl)-2,4,4-trifluoro-3-hydroxytetrahydrofuran-2-yl)methoxy)(phenoxy)phosphoryl)-L-alaninate] |  |  | > 10 | > 99 |  |  |  | 
